Reference: article PMC11546339, “Conformational Plasticity Enhances the Brain Penetration of a Metabolically Stable, Dual-Functional Opioid-Peptide CycloAnt” (International Journal of Molecular Sciences, 2024)
Like-named read-outs stand apart in the source and are kept apart here. Where a SMILES comes first, the peptide text is derived from it. Bridges are numbered along the chain shown (N, C = ends). [ ]: non-standard residue; d: D form. 2Abz = Nc1ccccc1C(=O)O; Dap = NC[C@H](N)C(=O)O

Legend:
respiration in mice = tested on: respiration in mice; parameters: method as in PMID 38005269; conditions: high doses up to 15 times the ED50, mice; cited from earlier work
[1] = tested on: physical dependence in mice; parameters: method as in PMID 38005269; conditions: chronic administration, naloxone-precipitated withdrawal; cited from earlier work
[2] = Pharmacokinetic study in mice (plasma and brain); type: in vivo; conditions: male, C57BL/6, mouse, ip, 3 mg/kg i.p.
Experimental: To evaluate the amount of CycloAnt in mouse brain, we performed a pharmacokinetic experiment in mice. Mice were given CycloAnt at 3 mg/kg i.p.; blood was collected at 0, 15, 30, and 60 min post-injection. Immediately after the blood was collected, the mouse was intracardially perfused through the left ventricle with 20 mL PBS. The whole brain was isolated and homogenized. The blood and brain samples were processed by protein precipitation and centrifugation. The supernatants of the blood and brain samples were collected and analyzed by LC-MS/MS.
Pharmacokinetic study. Standard curve. Following euthanasia, mouse blood was collected in a heparin anticoagulation tube and the whole brain was isolated. For determination of the standard curve in mouse blood, 300 μL of blood was spiked with 0, 10, 100, and 1000 ng of CycloAnt, respectively, followed by adding 600 μL of ice-cold acetonitrile containing the internal standard (IS, Tyr-[D-Lys-Phe-Tyr-Gly]) at 200 ng/mL. The blood samples were thoroughly mixed and centrifuged at 10,000 rpm at 4 °C for 10 min. An aliquot of 600 μL of supernatant from each sample was collected and dried under vacuum, followed by reconstitution of the dried blood sample in 100 μL 20% acetonitrile. The reconstituted sample was centrifuged at 13,000 rpm, 4 °C for 5 min to remove the lipid content. The supernatant was collected for LC-MS/MS analysis. For mouse brain, the brain was homogenized with 250 μL of PBS at 0 °C, followed by adding 1 mL of ice-cold acetonitrile containing the IS. The brain sample was then spiked with 0, 10, 100, and 1000 ng of CycloAnt, respectively, and thoroughly mixed and centrifuged at 10,000 rpm, 4 °C for 10 min. An aliquot of 1000 μL of supernatant was collected and dried under vacuum, followed by adding 100 μL 20% acetonitrile to reconstitute the dried brain sample. The reconstituted sample was mixed and centrifugating at 13,000 rpm, 4 °C for 5 min to remove the lipid content. The supernatant was collected and analyzed by LC-MS/MS.
The peak areas of CycloAnt and IS were recorded; the relative measured concentration of CycloAnt was calculated using the ratio of CycloAnt peak area vs. IS peak area. A standard concentration curve (Figure S8) was then generated for CycloAnt in the matrix of blood and brain, respectively.
Pharmacokinetics. Eight-week-old male C57BL/6 mice (Jackson Laboratories, Bar Harbor, ME, USA) were used for pharmacokinetic studies. CycloAnt was given to mice (n = 2) i.p. at a dose of 3 mg/kg. At 15, 30, and 60 min post-administration, mouse blood was collected in a heparin anticoagulation tube. After blood collection, the mouse was intracardially perfused through the left ventricle with 20 mL PBS, followed by isolation of the whole brain. To process the blood sample, 300 μL blood was mixed with 600 μL of ice-cold acetonitrile containing the IS at 200 ng/mL, followed by centrifugation at 10,000 rpm, 4 °C for 10 min. To process the brain sample, 250 μL of ice-cold PBS was added to the isolated brain and homogenized at 0 °C, followed by mixing with 1 mL of ice-cold acetonitrile containing the IS. The brain sample was then centrifuged at 10,000 rpm, 4 °C for 10 min. The supernatants were collected from the blood sample (600 μL) and the brain sample (1 mL), respectively, and dried under vacuum. The blood and brain samples were reconstituted in 100 μL of 20% acetonitrile. The samples were then centrifuged at 13,000 rpm, 4 °C for 5 min to remove the lipid content. The supernatants were collected from the blood and brain samples and analyzed by LC-MS/MS.

Stability in mouse serum = type: in vitro ADME; conditions: 37 °C, read-out: percentage of CycloAnt remaining in mouse serum
Experimental: Proteolytic instability is a major hurdle limiting the development of peptide drug. As blood is a major source of proteases that degrade peptides, we evaluated the stability of CycloAnt in mouse serum. CycloAnt at a final concentration of 20 µM was incubated with mouse serum (SigmaAldrich) at 37 °C for 8 h. At 0, 15, 30, 60, 120, 240, and 480 min, the incubation was terminated by adding 2 volumes of ice-cold acetonitrile to precipitate the proteins in the sample. After centrifugation at 10,000 rpm, supernatant was collected. The processed sample was analyzed by liquid chromatography tandem mass spectrometry (LC-MS/MS). The percentage of CycloAnt remaining at each time point was calculated (Figure 1).
Stability in mouse serum. CycloAnt was dissolved in pH 7.2 phosphate buffer saline (PBS). A total of 175 µL of CycloAnt at a final concentration of 20 µM was mixed with 2.625 mL of 100% mouse serum (SigmaAldrich) and incubated at 37 °C. The mixture was analyzed over a time course of 8 h. At the time points of 0, 15, 30, 60, 120, 240, and 480 min, 150 µL of sample were withdrawal and the reaction was terminated with 300 μL of ice-cold acetonitrile containing internal standard (IS, Tyr-[D-Lys-Phe-Tyr-Gly] at 200 ng/mL). The mixture was centrifuged at 10,000 rpm at 4 °C for 10 min. […] The percentage of peptide remaining at each time point was calculated relative to 0 min. […]

C[C@@H](O)[C@@H]1NC(=O)[C@H](CNC(=O)c2ccccc2N)NC(=O)[C@H](NC(=O)[C@@H](N)Cc2ccc(O)cc2)CCCCNC(=O)CNC1=O [CycloAnt] (H-Y[dK][Dap](2Abz)TG; lactam 2-C)
respiratory depression (respiration in mice): does not produce any respiratory depression | physical dependence [1]: significantly reduced physical dependence | Tmax ([2]; brain, read-out: time of maximum concentration in brain (converted)): 15 min | Cmax ([2]; assuming density of brain tissue 1 g/mL, read-out: maximum concentration in brain (Cmax,br)): 70 nM | Cmax ([2]; perfused brain, read-out: maximum concentration in brain (Cmax,br)): 46 ng/g | AUC ([2]; plasma, 0-60 min, read-out: AUCbld (plasma) (converted)): 173 ng·h/mL | Cmax ([2]; plasma, read-out: maximum concentration in mouse plasma (Cmax,pl)): 411 ng/mL | Tmax ([2]; whole blood, read-out: time of maximum concentration in blood (converted)): 15 min | remaining at 8 h, 20 µM (Stability in mouse serum): 82.3%
